We go through eleven compounds from patent publication US6489321B1, “Nonpeptide substituted benzothiazepines as vasopressin antagonists” (Ortho-McNeil Pharmaceutical, Inc., priority 1999, dated 2002).

By IC50 is commonly meant the concentration at which inhibition is half-maximal. Low values mean greater potency, high ones weaker potency. As a reminder, the melting point is the temperature of the solid-liquid transition.

For one series, the target named is vasopressin V1a receptor (Homo sapiens, UniProt P37288). The experiment in a line: In-vitro vasopressin receptor binding assay, V1a. As to conditions: for inhibition at 1 µM / inhibition at 0.1 µM: read-out: Receptor Binding (% Inh. @ concentration in μM) V1a.
Another series concerns the target T1, cloned human V2 receptor (Homo sapiens, UniProt P30518).
T1 construct: expressed in transfected cells
The experiment in a line: In-vitro vasopressin receptor binding assay, V2. The note with it: 3H-arginine-8-vasopressin; for IC50: footnote 1: IC50 values (μM). The method, then: Assay buffer is 50 mM Tris-Cl, 5 mM MgC12, 0.1% BSA (pH 7.5) containing 5 ug/ml of aprotinin, leupeptin, pepstatin, 50 ug/ml bacitracin, and 1 mM Pefabloc. H3 vasopressin is ^3H-arginine-8-vasopressin (68.5 Ci/mmol, final concentration in assay is 0.65-0.75nM). Into wells of 96-well round bottom polypropylene plates are added buffer, test compound, membrane (containing cloned human V2 receptor), and H3 vasopressin. The reaction plates are allowed to sit at room temperature for one hour. The samples are filtered through Unifilter GF/C plates (presoaked in 0.3 polyethyleneimine). The plates are washed 5 times with cold physiological saline containing 0.05% Tween 20. After drying, the bottom of the filter plates are sealed and 0.025 ml of Microscint-20 is added to each filter. The top of the plate is sealed, and the plate is counted. Non-specific binding is determined by the addition of 1.25 uM arginine-8-vasopressin in those wells. %Inh. is [formula]

Sequence of vasopressin V1a receptor (P37288 whole entry): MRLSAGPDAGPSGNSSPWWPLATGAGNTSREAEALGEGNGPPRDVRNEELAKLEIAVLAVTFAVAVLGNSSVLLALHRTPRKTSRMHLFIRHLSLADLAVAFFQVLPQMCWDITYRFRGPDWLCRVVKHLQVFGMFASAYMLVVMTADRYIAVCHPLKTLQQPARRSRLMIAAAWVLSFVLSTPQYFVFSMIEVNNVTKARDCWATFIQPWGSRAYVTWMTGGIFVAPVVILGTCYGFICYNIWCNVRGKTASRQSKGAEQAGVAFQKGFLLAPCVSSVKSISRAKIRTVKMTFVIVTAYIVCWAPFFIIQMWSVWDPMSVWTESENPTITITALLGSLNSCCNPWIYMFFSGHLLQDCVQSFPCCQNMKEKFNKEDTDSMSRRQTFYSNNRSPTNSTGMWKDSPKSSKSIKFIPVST
T1 sequence (P30518 whole entry): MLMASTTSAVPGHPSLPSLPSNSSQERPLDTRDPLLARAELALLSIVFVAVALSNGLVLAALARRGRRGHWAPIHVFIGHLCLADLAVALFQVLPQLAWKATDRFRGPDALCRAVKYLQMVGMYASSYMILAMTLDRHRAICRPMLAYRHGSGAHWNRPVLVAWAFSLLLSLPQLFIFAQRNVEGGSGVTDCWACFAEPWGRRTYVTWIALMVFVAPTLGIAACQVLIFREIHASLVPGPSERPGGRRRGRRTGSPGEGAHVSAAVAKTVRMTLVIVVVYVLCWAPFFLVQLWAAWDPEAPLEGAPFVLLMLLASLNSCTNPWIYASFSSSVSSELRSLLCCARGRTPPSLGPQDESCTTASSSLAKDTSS

Consider `O=C(Nc1ccc(CN2C(=O)CC(CCO)Sc3ccccc32)cc1)c1ccccc1-c1ccccc1` (centres unmarked) [Compound 23, 2-(2-Hydroxyethyl)-5-(4-(2-phenylbenzoylamino)benzyl)-1,5-benzothiazepine-4-one], for which the “Receptor Binding (% Inh. @ concentration in μM) V1a” value at vasopressin V1a receptor (1 μM test compound) is recorded as 33% @ 1. Moreover, the “Receptor Binding (% Inh. @ concentration in μM) V2” value on cloned human V2 receptor (1 μM test compound) is listed as 43% @ 1.

For the compound `O=C(O)CC1CCN(C(=O)c2ccc(NC(=O)c3ccccc3-c3ccccc3)cc2)c2ccccc2[S+]1[O-]` (centres unmarked) [Compound 24, 2-Carboxymethyl-1-oxo-5-(4-(2-phenylbenzoylamino)benzoyl)-1,5-benzothiazepine], the inhibition at 1 µM on vasopressin V1a receptor (1 μM test compound) was determined as 0%. The same compound displayed an IC50 at cloned human V2 receptor of 0.108 µM.

Regarding `O=CCC1CCN(C(=O)c2ccc(NC(=O)c3ccccc3-c3ccccc3)cc2)c2ccccc2S1` (centres unmarked) [Compound 25, 2-[5-[4-(2-Phenylbenzoylamino)benzoyl]-1,5-benzothiazepine]acetaldehyde], on vasopressin V1a receptor (1 μM test compound), the inhibition at 1 µM was determined as 30%. The same compound returned a half-maximal inhibitory concentration (IC50) at cloned human V2 receptor of 0.014 µM.

In turn, `O=C(O)CC1CCN(C(=O)c2ccc(NC(=O)c3ccccc3-c3ccccc3)cc2)c2ccccc2S1` (centres unmarked) [Compound 29, 2-Carboxymethyl-5-(4-(2-phenylbenzolylamino)benzoyl)-1,5-benzothiazepine] gave a melting point of 204 to 208 °C. In addition, at vasopressin V1a receptor (0.1 μM test compound), the inhibition at 0.1 µM amounted to 16%. The compound further yielded an IC50 at cloned human V2 receptor of 0.004 µM.

In the case of `N#CCCC1CCN(C(=O)c2ccc(NC(=O)c3ccccc3-c3ccccc3)cc2)c2ccccc2S1` (centres unmarked) [Compound 30], on vasopressin V1a receptor (0.1 μM test compound), the “Receptor Binding (% Inh. @ concentration in μM) V1a” value was 34% @ .1. The half-maximal inhibitory concentration (IC50) at cloned human V2 receptor was 0.069 µM.

As for `O=C(O)CCC1CCN(C(=O)c2ccc(NC(=O)c3ccccc3-c3ccccc3)cc2)c2ccccc2S1` (centres unmarked) [Compound 31], the inhibition at 0.1 µM on vasopressin V1a receptor (0.1 μM test compound) came to 30%. For the same compound, the IC50 at cloned human V2 receptor is 0.009 µM.

For the compound `O=C(Nc1ccc(C(=O)N2CCC(CCS(=O)(=O)O)Sc3ccccc32)cc1)c1ccccc1-c1ccccc1` (centres unmarked) [Compound 32, 2-Ethyl[5-[4-(2-phenylbenzoylamino)benzoyl]-1,5-benzothiazepin]sulfonic Acid], the inhibition at 0.1 µM on vasopressin V1a receptor (0.1 μM test compound) is 10%. Besides, the IC50 at cloned human V2 receptor was determined as 0.012 µM.

Regarding `O=C(Nc1ccc(C(=O)N2CCC(CCO)S(=O)(=O)c3ccccc32)cc1)c1ccccc1-c1ccccc1` (centres unmarked) [Compound 35, 2-(2-Hydroxyethyl)-1-dioxo-5-(4-(2-phenylbenzoylamino)-benzoyl)-1,5-benzothiazepine], the “Receptor Binding (% Inh. @ concentration in μM) V1a” value on vasopressin V1a receptor (0.1 μM test compound) came out at 2% @ .1. Besides, the “Receptor Binding (% Inh. @ concentration in μM) V2” value on cloned human V2 receptor (0.1 μM test compound) is on record as 20% @ .1.

Consider `O=C(Nc1ccc(C(=O)N2CCC(CCO)[S+]([O-])c3ccccc32)cc1)c1ccccc1-c1ccccc1` (centres unmarked) [Compound 36, 2-(2-hydroxyethyl)-1-oxo-5-(4-(2-phenylbenzoylamino)-benzoyl)-1,5-benzothiazepine], for which, on vasopressin V1a receptor (0.1 μM test compound), the “Receptor Binding (% Inh. @ concentration in μM) V1a” value was 0 @ .1%. The “Receptor Binding (% Inh. @ concentration in μM) V2” value on cloned human V2 receptor (0.1 μM test compound) was 38% @ .1.

As for `COC(=O)CC1CCN(C(=O)c2ccc(NC(=O)c3ccccc3-c3ccccc3)cc2)c2ccccc2S1` (centres unmarked) [Compound 37, 2-Methyl-[5-(4-(2-phenylbenzoylamino)benzoyl)-1,5-benzothiazepine]acetate], the “Receptor Binding (% Inh. @ concentration in μM) V1a” value on vasopressin V1a receptor (0.1 μM test compound) was determined as 17% @ .1. The compound also returned an IC50 on cloned human V2 receptor of 0.05 µM.

In the case of `CC(C)(N)C(=O)NCCC1CCN(C(=O)c2ccc(NC(=O)c3ccccc3-c3ccccc3)cc2)c2ccccc2S1.Cl` (centres unmarked) [Compound 39, 2-[2-Amino-2-methylpropionamido]-ethyl-5-[4-(2-phenylbenzoylamino)benzoyl]-1,5-benzothiazepine Hydrochloride], the “Receptor Binding (% Inh. @ concentration in μM) V1a” value at vasopressin V1a receptor (concentration not given) is recorded as 0%. At cloned human V2 receptor, this compound displayed a 50% inhibitory concentration (IC50) of 0.017 µM.
